From ChEMBL document CHEMBL1131798, “Synthesis and cytotoxicity of analogues of the antibiotic BE 10988 inhibitors of DNA topoisomerase II” (Bioorg Med Chem Lett, 1999) come the findings set out here.

This assay relates to L1210. The assay can be described thus: Antiproliferative activity using the murine L1210 leukemia cell line. The following applies: Mus musculus. The format is functional, cell-based.
For `COc1ccc(OC)c2c1c(C(=O)NCCN1CCOCC1)cn2C`, the IC50 was > 100 µM.
With `Cn1cc(C(=O)NCCN2CCOCC2)c2c1C(=O)C=CC2=O` the figure was 6.5 µM; with `Cn1cc(-c2nc(C(N)=O)cs2)c2c1C(=O)C=CC2=O`, 0.8 µM; with `COc1ccc(OC)c2c1c(-c1nc(C(N)=O)cs1)cn2C`, > 10 µM.
